Experimental data taken from PubChem BioAssay AID1226 (NMMLSC, 2008).
Inconclusive results are not listed. Calls of active or inactive are those of the source.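 The calls were made as follows: active = score of 100, fluorescent reporter fully moved to nucleus as with estrogen, or estrogen effect fully blocked; inactive = score of 0 or 50, partial or no effect.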

What follows are compounds tested against Estrogen receptor (Homo sapiens) (UniProt P03372) (assay: ERalpha agonist signaling via PH-RFP relocation – imaging, Cos7 ERalpha-GFP, PH-RFP reporter, orthogonal assay for ERalpha ligand project (AID 1226)). Settings: PIP3 nuclear translocation imaging, at 10 µM, stronger effect = higher value.
Chain of Estrogen receptor (Homo sapiens) (P03372 whole entry, looked up): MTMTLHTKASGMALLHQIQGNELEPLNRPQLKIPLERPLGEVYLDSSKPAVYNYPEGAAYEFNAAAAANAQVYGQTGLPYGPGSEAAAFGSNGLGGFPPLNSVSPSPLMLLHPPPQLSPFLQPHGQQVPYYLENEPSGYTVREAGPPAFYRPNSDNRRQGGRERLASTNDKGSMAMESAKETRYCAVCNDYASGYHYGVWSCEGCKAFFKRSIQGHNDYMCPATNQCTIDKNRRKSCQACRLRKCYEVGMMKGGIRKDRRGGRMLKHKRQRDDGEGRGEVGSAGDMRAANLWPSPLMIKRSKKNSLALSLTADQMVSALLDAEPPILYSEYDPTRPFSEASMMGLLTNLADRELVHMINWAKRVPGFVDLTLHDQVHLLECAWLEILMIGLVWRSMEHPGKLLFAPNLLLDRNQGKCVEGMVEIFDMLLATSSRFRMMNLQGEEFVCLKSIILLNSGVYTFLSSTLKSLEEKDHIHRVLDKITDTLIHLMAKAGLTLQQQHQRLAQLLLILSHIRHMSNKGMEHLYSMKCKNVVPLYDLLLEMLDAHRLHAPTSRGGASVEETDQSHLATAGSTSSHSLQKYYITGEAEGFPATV
With `COc1ccccc1N1CCN(C(=O)c2ccc3nc(-c4ccco4)c(-c4ccco4)nc3c2)CC1` the translocation response score was 50 (inactive).
For `Nc1ncnc2c1ncn2C1CCC(CO)C(O)C1` (stereo not drawn), the translocation response score was 100.
For `COc1cccc(NS(=O)(=O)c2ccc3c(c2)C2C=CCC2C(c2ccc(C(=O)O)cc2)N3)c1` (stereo not drawn), the translocation response score was 50 (inactive).
For `O=C(O)c1cc(Cl)c2c(c1)[C@@H]1C=CC[C@@H]1[C@H](c1ccc(S(=O)(=O)N3CCOCC3)cc1)N2`, the translocation response score was 50 (inactive).
In the case of `O=C(O)c1ccc2c(c1)C1C(Cl)C(Sc3ccccc3[N+](=O)[O-])CC1C(c1cccc([N+](=O)[O-])c1)N2` (stereo not drawn), the translocation response score is reported as 0 (inactive).
In the case of `Brc1cc2c(cc1C1Nc3ccccc3C3C=CCC31)OCO2` (stereo not drawn), the translocation response score is reported as 0 (inactive).
For `Cc1cc(-c2nn3c(-c4ccccc4)nnc3s2)c2ccccc2n1`, the translocation response score was 100.
Compound `Cc1cc(C)c2c(c1)[C@@H]1C=CC[C@@H]1[C@H](c1ccc(S(=O)(=O)N3CCOCC3)cc1)N2` has a translocation response score of 100.
